Results reported in paper PMC9042801 (RSC Advances, 2021).

Columns and labels:
in vitro = settings: dog
[1] = system: influenza virus A/Puerto Rico/8/34 (H1N1); settings: for SI (CC50/IC50): influenza virus A/Puerto Rico/8/34 (H1N1), MDCK cells
[2] = system: vaccine virus (VV, strain Copenhagen); experiment: organism not typed; format: cell-based
[3] = system: herpes simplex virus type 1 (HSV-1, strain VR-3); experiment: Antiviral activity against HSV-1 on Vero cells; format: cell-based; settings: HSV-1, Vero cells, moi 0.01, 3 days
[4] = system: bovine diarrhea virus (BDV) (strain VC-1); experiment: Antiviral activity against BDV on CCV cells; format: cell-based
MDCK cell line = settings: MTT, 72 h
[5] = CC50, MDCK cell line, MTT, 72 h

Q: With CSc1ccc(-c2c(C(F)(F)F)n(C)n(-c3ccccc3)c2=O)cc1 [Compound 3g] as the molecule, how does the CC50 (in vitro; [5]) read?
A: 263 ± 19 µM

Q: What about the IC50 [1] of the same molecule?
A: > 91 µM

Q: Which CC50 (in vitro; [5]) does the source give for Cn1c(C(F)(F)F)c(I)c(=O)n1-c1ccccc1 [Compound 5a, 4-iodo-5-trifluoromethyl-antipyrine] here?
A: > 815 µM

Q: And the “SIBOB (selectivity index)” value ([2]; VV, Vero cells)?
A: 2.9

Q: What about the “activity against the vaccine virus (strain Copenhagen), in words” value ([2]; Vero cells) of the same molecule?
A: weak activity

Q: What about the IC50 ([2]; Vero, 72 h) of the same molecule?
A: 103 ± 10 µM

Q: And the IC50 [3]?
A: Inactive

Q: What about the IC50 ([4]; 72 h) of the same molecule?
A: 46.9 ± 2 µM

Q: What about the “SIVDC (selectivity index)” value ([4]; BDV, CCV cells) of the same molecule?
A: 6.4

Q: And the “activity against bovine diarrhea virus (strain VC-1), in words” value ([4]; CCV cells)?
A: weak activity

Q: Which CC50 (in vitro; [5]) does the source give for Cn1c(C(F)(F)C(F)(F)F)c(I)c(=O)n1-c1ccccc1 [Compound 5b] here?
A: 378 ± 26 µM

Q: Which CC50 (in vitro; [5]) does the source give for Cn1c(C(F)(F)F)c(C#Cc2ccccc2)c(=O)n1-c1ccccc1 [Compound 6a, 1-methyl-2-phenyl-4-(phenylethynyl)-5-(trifluoromethyl)-1,2-dihydro-3H-pyrazol-3-one] here?
A: > 815 µM

Q: And the “SI (CC50/IC50)” value [1]?
A: 15

Q: What about the CC50 (MDCK cell line) of the same molecule?
A: > 877 µM

Q: What does the source list for NC(=O)c1ncn([C@@H]2O[C@H](CO)[C@@H](O)[C@H]2O)n1 [Ribavirin, reference compound]?
A: CC50 (in vitro): > 2130 µM; SI (CC50/IC50) [1]: 59
